The format of series [1] is physicochemical. Particulars: densitometer, GM3 adhered to a microplate; insufficient to detect influenza virus.
Series [2] deals with influenza virus A/Aichi/2/68 (H3N2). As to the kind of experiment: TLC/virus binding assay: binding activity of ganglioside to influenza virus.

Structures are written as SMILES.

Consider `O=C1OC2(c3ccc(O)cc3Oc3cc(O)ccc32)c2ccccc21` [GM3 fluorescein], for which the “fluorescence of virus-bound compound in hydrophobic conditions” value in series [1] is on record as “very weak fluorescence”.
As to `CCCCCCCCCCCCC/C=C/[C@@H](O)[C@H](CO[C@@H]1O[C@H](CO)[C@@H](O[C@@H]2O[C@H](CO[C@]3(C(=O)O)C[C@H](O)[C@@H](NC(C)=O)[C@H]([C@H](O)[C@H](O)CO)O3)[C@H](O)[C@H](O)[C@H]2O)[C@H](O)[C@H]1O)NC(=O)CCc1ccc(/C=C/C=C/C=C/c2ccccc2)cc1` [compound 3, O-(5-acetamide-3,5-dideoxy-D-glycero-α-D-galacto-2-nonuropyranosylonate)-(2→6)-O-(β-D-galactopyranosyl)-(1→4)-O-(β-D-glucopyranosyl)-(1→1)-(2S, 3R,4E)-2-(3-(p-(6-phenyl)1,3,5-hexatrienyl)phenylpropionamide)-4-octadecene-1,3-diol], the “sensitivity relative to conventional sialyl(α2-6)lactosylceramide” value in series [2] is on record as 4 times. In series [2] (6 nmol ganglioside spotted on TLC plate, reference point set equal to 100, FIG. 1), the “relative measurement intensity (response of densitometer at 620 nm minus response at 430 nm)” value is 100%. Besides, the “detection of influenza virus (sensitivity)” value in series [2] (TLC/virus binding assay, A/Aichi/2/68 (H3N2)) is “very high sensitivity”. Besides, the “detection sensitivity relative to GM3” value in series [2] (according to FIG. 1, A/Aichi/2/68 (H3N2)) is 12 times.
